pIC50: −log10 of the molar value. Some results are limits rather than exact numbers.

Here are results for eight compounds from US20240246992A1, “MACROCYCLIC LRRK2 KINASE INHIBITORS” (LES LABORATOIRES SERVIER, priority 2021, published 2024).

In the assay the target is human recombinant LRRK2 protein (Homo sapiens, UniProt Q5S007). Nature of the assay: LRRK2 kinase activity assay (ADP-Glo, LRRKtide peptide). The class given is biochemical. The note with it: human recombinant LRRK2 wt, LRRKtide peptide and ATP, 1 h at 37° C. In a few lines: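 Human recombinant LRRK2 reacted with LRRKtide peptide and ATP for 1 h at 37 °C in the presence of compound. ADP formed measured by ADP-Glo luminescence; IC50 fitted from 10 concentrations run in duplicate.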
Chain of human recombinant LRRK2 protein (Q5S007 whole entry): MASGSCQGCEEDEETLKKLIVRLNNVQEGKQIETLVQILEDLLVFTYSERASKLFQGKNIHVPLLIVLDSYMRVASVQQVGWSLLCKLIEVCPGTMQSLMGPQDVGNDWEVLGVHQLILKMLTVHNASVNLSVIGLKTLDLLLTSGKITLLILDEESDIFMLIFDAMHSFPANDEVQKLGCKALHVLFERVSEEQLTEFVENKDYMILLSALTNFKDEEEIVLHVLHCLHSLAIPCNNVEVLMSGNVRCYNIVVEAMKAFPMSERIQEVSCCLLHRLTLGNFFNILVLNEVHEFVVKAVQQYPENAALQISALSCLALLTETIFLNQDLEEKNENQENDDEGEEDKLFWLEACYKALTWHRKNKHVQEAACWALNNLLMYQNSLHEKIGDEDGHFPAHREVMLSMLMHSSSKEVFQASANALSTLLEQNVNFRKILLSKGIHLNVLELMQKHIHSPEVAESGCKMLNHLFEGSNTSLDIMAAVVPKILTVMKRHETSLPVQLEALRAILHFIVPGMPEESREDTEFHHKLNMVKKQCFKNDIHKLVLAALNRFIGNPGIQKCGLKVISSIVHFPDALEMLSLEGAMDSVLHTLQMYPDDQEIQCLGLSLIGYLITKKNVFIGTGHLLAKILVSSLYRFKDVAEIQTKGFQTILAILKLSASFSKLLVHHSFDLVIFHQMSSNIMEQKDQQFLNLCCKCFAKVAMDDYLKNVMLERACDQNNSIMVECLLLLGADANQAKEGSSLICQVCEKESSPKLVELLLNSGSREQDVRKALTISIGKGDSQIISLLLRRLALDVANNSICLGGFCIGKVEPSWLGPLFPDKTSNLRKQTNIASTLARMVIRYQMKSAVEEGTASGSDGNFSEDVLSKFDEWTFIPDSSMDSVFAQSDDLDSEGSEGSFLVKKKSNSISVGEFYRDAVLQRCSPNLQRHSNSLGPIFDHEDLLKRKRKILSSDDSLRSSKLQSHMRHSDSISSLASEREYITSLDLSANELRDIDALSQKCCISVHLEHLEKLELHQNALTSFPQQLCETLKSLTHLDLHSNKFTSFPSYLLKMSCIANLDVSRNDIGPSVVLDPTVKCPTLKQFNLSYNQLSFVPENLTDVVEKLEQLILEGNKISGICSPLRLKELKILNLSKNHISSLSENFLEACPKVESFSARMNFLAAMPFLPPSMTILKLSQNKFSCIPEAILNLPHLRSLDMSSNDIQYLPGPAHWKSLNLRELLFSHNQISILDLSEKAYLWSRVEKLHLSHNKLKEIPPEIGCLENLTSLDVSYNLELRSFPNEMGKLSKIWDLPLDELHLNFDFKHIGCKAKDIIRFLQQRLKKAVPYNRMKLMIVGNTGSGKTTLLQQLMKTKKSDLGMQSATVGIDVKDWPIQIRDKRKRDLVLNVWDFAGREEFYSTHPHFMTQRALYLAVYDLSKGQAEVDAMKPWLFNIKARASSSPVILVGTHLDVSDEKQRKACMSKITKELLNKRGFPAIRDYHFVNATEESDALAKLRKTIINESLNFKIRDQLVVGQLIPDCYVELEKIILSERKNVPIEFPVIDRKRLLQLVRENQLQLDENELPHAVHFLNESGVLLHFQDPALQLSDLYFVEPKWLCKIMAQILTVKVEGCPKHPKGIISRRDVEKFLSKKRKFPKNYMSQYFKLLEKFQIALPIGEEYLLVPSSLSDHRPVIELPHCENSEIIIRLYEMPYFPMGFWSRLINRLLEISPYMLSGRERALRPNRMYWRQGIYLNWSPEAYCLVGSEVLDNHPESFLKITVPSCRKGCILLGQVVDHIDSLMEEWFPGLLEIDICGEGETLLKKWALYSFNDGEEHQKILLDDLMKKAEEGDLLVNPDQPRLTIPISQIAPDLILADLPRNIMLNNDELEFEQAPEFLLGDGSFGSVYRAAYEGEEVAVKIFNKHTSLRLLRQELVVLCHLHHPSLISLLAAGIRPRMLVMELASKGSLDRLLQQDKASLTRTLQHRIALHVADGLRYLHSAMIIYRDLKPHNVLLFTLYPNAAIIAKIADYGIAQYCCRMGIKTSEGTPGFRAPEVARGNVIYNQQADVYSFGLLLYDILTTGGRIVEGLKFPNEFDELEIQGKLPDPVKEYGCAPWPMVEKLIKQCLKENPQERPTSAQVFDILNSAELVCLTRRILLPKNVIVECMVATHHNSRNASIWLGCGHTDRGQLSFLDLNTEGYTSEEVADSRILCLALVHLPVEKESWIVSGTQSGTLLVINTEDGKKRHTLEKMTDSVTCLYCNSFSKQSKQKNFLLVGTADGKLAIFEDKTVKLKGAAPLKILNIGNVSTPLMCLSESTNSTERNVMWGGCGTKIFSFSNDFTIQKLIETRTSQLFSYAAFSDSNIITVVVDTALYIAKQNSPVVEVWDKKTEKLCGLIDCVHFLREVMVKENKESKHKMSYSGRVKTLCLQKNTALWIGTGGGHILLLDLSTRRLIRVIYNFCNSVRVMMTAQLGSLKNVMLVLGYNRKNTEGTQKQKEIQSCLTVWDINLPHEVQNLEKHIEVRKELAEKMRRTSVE
Take `c1ncc2cc1OCCCNCCOc1ccc3[nH]nc-2c3c1` [Example 238, 7,14-dioxa-4,11,19,20-tetraazatetracyclo[13.5.2.1^2,6.0^18,21]tricosa-1(20),2,4,6(23),15,17,21-heptaene]: the negative-log IC50 (pIC50) is greater than 8.00.
Take `CC(C)Oc1cc2cc(c1)-c1n[nH]c3ccc(cc13)OCCCN(C)CCO2` [Example 239, 10-methyl-4-(propan-2-yloxy)-7,14-dioxa-10,19,20-triazatetracyclo[13.5.2.1^2,6.0^18,21]tricosa-1(20),2,4,6(23),15,17,21-heptaene]: the pIC50 is greater than 7.00.
For `CC1CCOc2ccc3[nH]nc(c3c2)-c2cccc(n2)OCCN1` (centres unmarked) [Example 240, 11-methyl-7,14-dioxa-10,19,20,23-tetraazatetracyclo[13.5.2.1^2,6.0^18,21]tricosa-1(20),2,4,6(23),15,17,21-heptaene], the pIC50 is greater than 8.00.
Under `C[C@@H]1CCNC(=O)C[C@H](C)n2ncc(n2)-c2n[nH]c3ccc(cc23)O1` [Example 242] stands greater than 8.00.
In the case of `C[C@@H]1CCN(C)C(=O)C[C@H](C)n2ncc(n2)-c2n[nH]c3ccc(cc23)O1` [Example 243], the pIC50 is greater than 7.00.
For `C[C@@H]1CCN(C)CC[C@H](C)n2ncc(n2)-c2n[nH]c3ccc(cc23)O1` [Example 244, (6S,12R)-6,9,12-trimethyl-13-oxa-4,5,9,18,19,22-hexaazatetracyclo[12.5.2.1^2,5.0^17,20]docosa-1(19),2(22),3,14(21),15,17(20)-hexaene], the pIC50 is greater than 7.00.
As for `C[C@@H]1CCOCCCn2cc(cn2)-c2n[nH]c3cnc(cc23)O1` [Example 245, (12R)-12-methyl-9,13-dioxa-4,5,15,18,19-pentaaza tetracyclo[12.5.2.1^2,5.0^17,20]docosa-1(19),2(22),3,14(21),15,17(20)-hexaene], the pIC50 is greater than 8.00.
For `C[C@H]1COc2cc3c(n[nH]c3cn2)-c2cnn(c2)CCOCCO1` [Example 246], the pIC50 was greater than 7.00.
